Data on nine compounds can be found in patent publication US20200268728A1, “DRUG TARGETING CANCER STEM CELL” (Sumitomo Dainippon Pharma Co., Ltd., priority 2016, published 2020).

Structures can show the parent of a compound that is named as a salt. Where two headings read alike, the source gives them in different places.

One assay relates to HCT-116 cells. Kind of assay: Anti-tumor effect to HCT-116 tumor-bearing mouse (Test Example 2). To be noted: oral, read-out: T/C (%); for response vs control in vivo at 150 mg/kg: dosage 150 mg/kg. In kind it is in vivo. An excerpt: The present compound can be used to evaluate the anti-tumor effect thereof. A 4 to 7-week-old nude mouse (BALB/cAnNCrj-nu/nu, female, CHARLES RIVER LABORATORIES JAPAN, INC.) received intradermal transplantation of HCT-116 cells (ATCC) in an amount of 3×10^6 cells/mouse around the ventral portion. The engraftment of HCT-116 cells was observed 5 to 14 days after the transplantation, and then each compound suspended in a solvent such as 0.5% methylcellulose solution was orally administrated to the mouse in a dose of 1 to 200 mg/kg one to twice daily. The tumor volume was measured over time after the administration to evaluate the effect for reducing the tumor volume by the administration of each compound. The tumor volume can be calculated from the minor axis and the major axis of the tumor measured with a digital caliper (Mitutoyo) according to the following formula:
Tumor volume [mm^3]=0.5×minor axis [mm]×(major axis [mm])^2
The tumor volume in control administration group treated with only a solvent such as 0.5% methylcellulose solution was compared with that of the present compound administration group, and T/C value was calculated according the following formula to evaluate the anti-tumor effect of the present compound.
T/C(%)=(the tumor volume at the end of administration in the present compound administration group−the tumor volume at the start of administration in the present compound administration group)/(the tumor volume at the end of administration in the control administration group−the tumor volume at the start of administration in the control administration group)×100
The T/C values (%) of the present compound on each dosage and administration period in the HCT-116 tumor-bearing mouse are shown below.

Another assay relates to LNCap cells. Kind of assay: Combination with Example 24, inhibitory effect on sphere-forming ability (Test Example 6). In kind it is cell-based. Conditions: LNCap sphere culture, test compound combined with Example 24 (2-1000 nmol/L), 4 days.
The test system of the next assay is HCT116 cells. The assay is described as above. The format is cell-based, human. Conditions: HCT116 sphere culture, test compound combined with Example 24 (2-1000 nmol/L), 4 days.
A further assay relates to H460 cells. The description is as above. The format is cell-based, human. To be noted: H460 sphere culture, test compound combined with Example 24 (2-1000 nmol/L), 4 days.
Setting [1] is: HCT-116, 456 h, administration period 19 day.

Method for H460 cells: (§1) After the culture, CellTiterGlo (Promega) was added into all of the wells, and the plate is allowed to stand at room temperature for 10 minutes to measure the intensity of luminescence of each well. […] The formula for calculating the rate is shown below.
(§2) Sphere formation rate (%)=(Lsample)/(Lcontrol)×100
(§3) The value obtained by dividing the sphere formation rate by 100 and subtracting the calculated value from 1 is defined as a sphere formation inhibitory effect. The formula for calculating the effect is shown below.
(§4) Sphere formation inhibitory effect=1−(Sphere formation rate/100)
(§5) Also, the measured cell survival rate of the combination was defined as (Ld).
(§6) The minimum value thereof (sCI) was used as the criteria for screening.
Method for LNCap cells: as §1, §2, §3, §4, §5, §6

Take `COc1ccc(C(=O)Nc2cn(Cc3ccc(F)c(F)c3)cn2)cc1OC` [Example 11-2]: the response vs control in vivo at 150 mg/kg in the assay with HCT-116 cells (setting [1]) was 52%.

Turning to `COc1ccc(C(=O)Nc2cn(Cc3cc(F)c(F)c(F)c3)cn2)cc1OC` [Example 13-2], the response vs control in vivo at 15 mg/kg in the assay with HCT-116 cells (HCT-116, 528 h, dosage 15 mg/kg, administration period 22 day) was 72%. Moreover, in the assay with HCT-116 cells (HCT-116, 528 h, administration period 22 day), the response vs control in vivo at 150 mg/kg amounted to 45%.

With `CC(O)(CS(=O)(=O)c1ccc(F)cc1)C(=O)Nc1ccc(C#N)c(C(F)(F)F)c1` (stereo not drawn) [Bicalutamide], in the assay with LNCap cells, the “sCI, minimum (Ld)/(Lc)” value was determined as 0.421.

For the compound `CNC(=O)c1ccc(N2C(=S)N(c3ccc(C#N)c(C(F)(F)F)c3)C(=O)C2(C)C)cc1F` [Enzalutamide], the “sCI, minimum (Ld)/(Lc)” value in the assay on LNCap cells came to 0.826.

Turning to `COc1ccc(C(=O)Nc2cn(Cc3cc(F)cc(F)c3)cn2)cc1OC` [Example 12-2], the response vs control in vivo at 150 mg/kg with HCT-116 cells (setting [1]) was found to be 84%.

`COc1ccc(C(=O)Nc2cn(Cc3cccc(Cl)c3)cn2)cc1OC` [Example 10-2, N-[1-(3-Chlorobenzyl)-1H-imidazol-4-yl]-3,4-dimethoxybenzamide hydrochloride]: the response vs control in vivo at 150 mg/kg in the assay with HCT-116 cells (setting [1]) is 53%.

Turning to `COC1=CC(c2cc3ccccc3[nH]2)=N/C1=C\c1[nH]c(C)cc1C` [Obatoclax], the results for the “sCI, minimum (Ld)/(Lc)” value in the assay on HCT116 cells and with H460 cells were 0.103 and 0.061, respectively.

As for `CCCCCCCCc1ccc(CCC(N)(CO)CO)cc1` [Fingolimod], the “sCI, minimum (Ld)/(Lc)” value is reported as 0.013 with HCT116 cells and 0.007 in the assay on H460 cells.

`O=C(/C=C/c1cccnc1)Nc1cn(Cc2cccc(Cl)c2)cn1` [Example 9-2, (2E)-N-(1-(3-Chlorobenzyl)-1H-imidazol-4-yl)-3-(pyridin-3-yl)prop-2-enamide dihydrochloride]: the response vs control in vivo at 150 mg/kg with HCT-116 cells (HCT-116, 384 h, administration period 16 day) amounted to 65%.
